Reference: patent US9714243B2, “4-pyridinonetriazine derivatives as HIV integrase inhibitors” (Merck Sharp & Dohme Corp., priority 2012, dated 2017)
Where two headings read alike, the source gives them in different places.

Test system: HIV-1 (NL4-3 strain)
Test: Assay for inhibition of HIV replication (ViKinG; infected MT4-GFP cells)
Assay type: cell-based
Description: Assay for inhibition of HIV replication
MT4-GFP cells (250,000 cells/ml) were bulk-infected with HIV-1 (NL4-3 strain) at low multiplicity of infection (MOI) in RPMI+10% FBS for 24 hours. […] Test compounds were serial-diluted in DMSO on ECHO. The infected MT4-GFP cells were added to a 384-well poly-D-lysine coated black plate with clear bottom in which the diluted test compounds were placed. The cells were seeded at 8,000 cells per well and the final DMSO concentration was 0.4%. The infected cells (Green GFP cells) were quantified at both 24 and 48 hours post incubation using Acumen eX3. Viral reproductive ratio (R0) was determined using the number of infected cells at 48 hours divided by the number of infected cells at 24 hours. Percent viral growth inhibition was calculated by [1−(R−Rtripledrug)/(RDMSO−Rtripledrug)]*100. Compound potency IP or IC50 was determined by a 4-parameter dose response curve analysis.

[1] = MT4-GFP cells infected with HIV-1 NL4-3, 0% normal human serum (NHS), read-out: ViKinG IP (nM) with 0% NHS
[2] = MT4-GFP cells infected with HIV-1 NL4-3, 10% normal human serum (NHS), read-out: ViKinG IP (nM) with 10% NHS
[3] = Human immunodeficiency virus 1, NL43, MT4-GFP cells infected with HIV-1 NL4-3, 0% normal human serum (NHS), read-out: ViKinG IP (nM) with 0% NHS
[4] = Human immunodeficiency virus 1, NL43, MT4-GFP cells infected with HIV-1 NL4-3, 100% normal human serum (NHS), read-out: ViKinG IP (nM) with 100% NHS
[5] = Human immunodeficiency virus 1, NL43, MT4-GFP cells infected with HIV-1 NL4-3, 10% normal human serum (NHS), read-out: ViKinG IP (nM) with 10% NHS
[6] = MT4-GFP cells infected with HIV-1 NL4-3, 100% normal human serum (NHS), read-out: ViKinG IP (nM) with 100% NHS

SMILES	IC50 [1]	IC50 [2]	IC50 [3]	IC50 [4]	IC50 [5]	other results
CN1C(=O)c2c(O)c(=O)c(-c3nnc(Cc4ccc(F)cc4F)s3)cn2N(C)C12CCC(C)(O)CC2 (stereo not drawn) [Compound 70]	9.9 nM	39.1 nM				
CN1C(=O)c2c(O)c(=O)c(-c3nnc(Cc4ccc(F)cc4F)s3)cn2N(C)C12CCC(C(=O)NCc1cnoc1)CC2 (stereo not drawn) [Compound 127]		376 nM	112 nM			
CN1C(=O)c2c(O)c(=O)c(-c3nnc(Cc4ccc(F)cc4F)s3)cn2N(C)C12CCC(C(=O)NCC1(O)CC1)CC2 (stereo not drawn) [Compound 123]	47.1 nM	103 nM				
CN1C(=O)c2c(O)c(=O)c(C(=O)NCc3ccc(F)cc3F)cn2N(C)[C@]12CC[C@@H]1C[C@@H]12 [Compound 186]			1.74 nM	283 nM		
CN1C(=O)c2c(O)c(=O)c(-c3nnc(Cc4ccc(F)cc4F)s3)cn2N(C)C12CCC(C(=O)NCC1CCOC1)CC2 (stereo not drawn) [Compound 130]	13.7 nM	33.9 nM				
CCN1C(=O)c2c(O)c(=O)c(-c3nnc(Cc4ccc(F)cc4F)s3)cn2N(C)C1C(C)(C)C (racemic) [Compound 16]				1030 nM	57 nM	
CN(CCNC(=O)C1CCC2(CC1)N(C)C(=O)c1c(O)c(=O)c(-c3nnc(Cc4ccc(F)cc4F)s3)cn1N2C)C(=O)OC(C)(C)C (stereo not drawn) [Compound 139]		186 nM	54.3 nM			
CCOC1CCC2(CC1)N(CC)C(=O)c1c(O)c(=O)c(C(=O)NCc3ccc(F)cc3F)cn1N2C (stereo not drawn) [Compound 191]			6.74 nM			IC50 [6]: 239 nM
COCCNC(=O)C1CCC2(CC1)N(C)C(=O)c1c(O)c(=O)c(-c3nnc(Cc4ccc(F)cc4F)s3)cn1N2C (stereo not drawn) [Compound 122]	5.51 nM	18.4 nM				
CN1C(=O)c2c(O)c(=O)c(-c3nnc(Cc4ccc(F)cc4F)s3)cn2N(C)C12CCC(C(=O)NCC1CCOC1)CC2 (stereo not drawn) [Compound 129]	67.7 nM	1080 nM				
CN1C2C(O)CCCN2C(=O)c2c(O)c(=O)c(-c3nnc(Cc4ccc(F)cc4F)s3)cn21 (stereo not drawn) [Compound 167]	2.52 nM					IC50 [6]: 41.9 nM
CCN1C(=O)c2c(O)c(=O)c(-c3nnc(Cc4ccc(F)cc4F)s3)cn2CC12CCC2 [Compound 211]			10.3 nM	2800 nM		
CN1C(=O)c2c(O)c(=O)c(-c3nnc(Cc4ccc(F)cc4F)s3)cn2N(C)C12CCC(OC(=O)C(Cl)Cl)CC2 (stereo not drawn) [Compound 68]					10.5 nM	
CN1C2COCCN2C(=O)c2c(O)c(=O)c(-c3nnc(Cc4ccc(F)cc4)s3)cn21 (stereo not drawn) [Compound 161]		41.1 nM				IC50 [6]: 465 nM
CCN1C(=O)c2c(O)c(=O)c(-c3nnc(Cc4ccc(F)cc4)s3)cn2N(C)C12CCC(CC(=O)N(C)C)CC2 (stereo not drawn) [Compound 97]				133 nM	23.4 nM	
CN(C)CCNC(=O)C1CCC2(CC1)N(C)C(=O)c1c(O)c(=O)c(-c3nnc(Cc4ccc(F)cc4F)s3)cn1N2C (stereo not drawn) [Compound 125]	374 nM	543 nM				
CCN1C(=O)c2c(O)c(=O)c(-c3nnc(Cc4ccc(F)cc4)s3)cn2N(C)C12CCC(P(=O)(O)O)C2 (stereo not drawn) [Compound 87]			626 nM	2890 nM		
COC1(C)CCC2(CC1)N(C)C(=O)c1c(O)c(=O)c(-c3nnc(Cc4ccc(F)cc4F)s3)cn1N2C (stereo not drawn) [Compound 72]			6.07 nM		9.93 nM	
COCCNC(=O)C1CCC2(CC1)N(C)C(=O)c1c(O)c(=O)c(-c3nnc(Cc4ccc(F)cc4F)s3)cn1N2C (stereo not drawn) [Compound 121]	102 nM	240 nM				
CN1C(=O)c2c(O)c(=O)c(-c3nnc(Cc4ccc(F)cc4F)s3)cn2N(C)C12CCCCCC2 [Compound 76]			17.3 nM	761 nM	23.6 nM	
CCN1C(=O)c2c(O)c(=O)c(-c3nnc(Cc4ccc(F)cc4F)s3)cn2N(C)C12CCC(C(=O)N(C)CC(F)(F)F)CC2 (stereo not drawn) [Compound 102]			12.2 nM	170 nM		

SMILES	IC50 [1]	IC50 [2]	IC50 [3]	IC50 [4]	IC50 [5]	other results
CCN1C(=O)c2c(O)c(=O)c(-c3nnc(Cc4ccc(F)cc4)s3)cn2N(C)C1(C)C [Compound 5]				936 nM	31 nM	
COC1(C)CCC2(CC1)N(C)C(=O)c1c(O)c(=O)c(-c3nnc(Cc4ccc(F)cc4F)s3)cn1N2C (stereo not drawn) [Compound 73]	7.04 nM	11.9 nM				
CN1C2CCCCCN2C(=O)c2c(O)c(=O)c(-c3nnc(Cc4ccc(F)cc4F)s3)cn21 (racemic) [Compound 159]					121 nM	
CN1C(=O)c2c(O)c(=O)c(-c3nnc(Cc4ccc(F)cc4F)s3)cn2N(C)C12CCC(C(=O)NCc1cn(C)cn1)CC2 (stereo not drawn) [Compound 132]	109 nM	173 nM				
COCCN1C(=O)c2c(O)c(=O)c(C(=O)NCc3ccc(F)cc3F)cn2CC12CC2 [Compound 180]			1.8 nM	611 nM		
C[C@@H]1n2cc(C(=O)NCc3ccc(F)cc3F)c(=O)c(O)c2C(=O)N(C)C12CC2 [Compound 176]			2.12 nM	39 nM		
CN1n2cc(-c3nnc(Cc4ccc(F)cc4F)s3)c(=O)c(O)c2C(=O)NC12CC[C@@H]1C[C@@H]12 (stereo partly drawn) [Compound 196]			1.61 nM	307 nM		
CCOP(=O)(OCC)C1CCC2(C1)N(CC)C(=O)c1c(O)c(=O)c(-c3nnc(Cc4ccc(F)cc4F)s3)cn1N2C (stereo not drawn) [Compound 38]		95.4 nM				
CN1C(=O)c2c(O)c(=O)c(-c3nnc(Cc4ccc(F)cc4F)s3)cn2N(C)C12CCCc1occc12 (racemic) [Compound 78]			10.7 nM		93 nM	
CCN1C(=O)c2c(O)c(=O)c(-c3nnc(Cc4ccc(F)cc4F)s3)cn2N(C)C12CCC(OC)CC2 (stereo not drawn) [Compound 26]	2.83 nM			115 nM	9.22 nM	
CCN1C(=O)c2c(O)c(=O)c(-c3nnc(Cc4ccc(F)cc4F)s3)cn2N(C)C12CCC(OC)CC2 (stereo not drawn) [Compound 27]	9.24 nM	11.5 nM				IC50 [6]: 191 nM
CN1C(=O)c2c(O)c(=O)c(-c3nnc(Cc4ccc(F)cc4F)s3)cn2N(C)C12CCC(C(=O)NC1CC1)C2 (stereo not drawn) [Compound 141]			59.7 nM	1990 nM		
CCN1C(=O)c2c(O)c(=O)c(-c3nnc(Cc4ccc(F)cc4)s3)cn2N(C)C12CC(C(=O)OC)C2 (stereo not drawn) [Compound 224]				361 nM	49.3 nM	
CCN1C(=O)c2c(O)c(=O)c(-c3nnc(Cc4ccc(F)cc4F)s3)cn2N(C)C1(C)C [Compound 15]			3.49 nM	971 nM	57.9 nM	
CCOC1CCC2(CC1)N(CC)C(=O)c1c(O)c(=O)c(C(=O)NCc3ccc(F)cc3F)cn1N2C (stereo not drawn) [Compound 192]	3.66 nM					IC50 [6]: 67.2 nM
CN1C(=O)c2c(O)c(=O)c(-c3nnc(Cc4ccc(F)cc4F)s3)cn2N(C)C12CCC(C(=O)NCC(F)(F)F)CC2 (stereo not drawn) [Compound 111]	26.6 nM	193 nM				
CCN1C(=O)c2c(O)c(=O)c(-c3nnc(Cc4ccc(F)cc4)s3)cn2N(C)C1C1CCOCC1 (racemic) [Compound 219]					26.9 nM	
CN(C)C(=O)C1CCC2(CC1)N(C)C(=O)c1c(O)c(=O)c(-c3nnc(Cc4ccc(F)cc4)s3)cn1N2C (stereo not drawn) [Compound 146]		9.02 nM		188 nM		
CN(C(=O)C1CCC2(CC1)N(C)C(=O)c1c(O)c(=O)c(-c3nnc(Cc4ccc(F)cc4F)s3)cn1N2C)C1CC1 (stereo not drawn) [Compound 109]	12.1 nM				18.2 nM	
CCN1C(=O)c2c(O)c(=O)c(-c3nnc(Cc4ccc(F)cc4F)s3)cn2N(C)C12CCC(F)(F)CC2 [Compound 56]			12 nM	1980 nM		
CCN1C(=O)c2c(O)c(=O)c(-c3nnc(Cc4ccc(F)cc4)s3)cn2N(C)C1C1CC1 (racemic) [Compound 217]				1020 nM	66 nM	
